In this experiment the target is T1, human LPA1 (Homo sapiens, UniProt Q92633).
T1 construct: expressed in transfected cells; host or cells: Chinese hamster ovary (CHO) cells
The experiment can be described thus: LPA1 functional antagonist assay (calcium flux). The class given is cell-based. The settings on record: CHO cells overexpressing human LPA1; calcium flux induced by 10 nM LPA; read-out: hLPA1 IC50. Here is the method: The effectiveness of compounds of the present invention as LPA1 inhibitors can be determined in an LPA1 functional antagonist assay as follows:
The cells were then equilibrated to room temperature for 30 minutes before the assay. […] IC50 values were determined by fitting data to a 4-parameter logistic equation (GraphPad Prism, San Diego Calif.).
(In general: Calcium assays in cells follow changes in intracellular calcium, usually with a dye or a luminescent sensor.)

What is called IC50 is the concentration that inhibits the measured activity by half.

T1 sequence (Q92633 whole entry): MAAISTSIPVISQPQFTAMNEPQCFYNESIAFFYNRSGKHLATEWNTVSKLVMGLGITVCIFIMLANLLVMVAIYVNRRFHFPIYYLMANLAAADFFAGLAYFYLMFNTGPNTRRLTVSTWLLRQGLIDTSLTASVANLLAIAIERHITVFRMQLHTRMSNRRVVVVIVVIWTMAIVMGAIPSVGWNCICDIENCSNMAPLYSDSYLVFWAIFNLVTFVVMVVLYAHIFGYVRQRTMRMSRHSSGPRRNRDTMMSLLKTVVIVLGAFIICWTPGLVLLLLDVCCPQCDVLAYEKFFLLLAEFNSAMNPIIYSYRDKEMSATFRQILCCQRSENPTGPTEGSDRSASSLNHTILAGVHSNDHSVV

Consider `Cc1nc(-c2nnn(C)c2CNC(=O)N(C)CCC2CC2)ccc1O[C@H]1CCC[C@H](C(=O)O)C1` [Example 114, (1S,3S)-3-((6-(5-((3-(2-cyclopropyl-ethyl)-3-methylureido)methyl)-1-methyl-1H-1,2,3-triazol-4-yl)-2-methylpyridin-3-yl)oxy)cyclohexane-1-carboxylic acid], for which the IC50 worked out at 112 nM. The figure for `Cc1nc(-c2nnn(C)c2CN(C)C(=O)N(C)Cc2ccccc2)ccc1O[C@H]1CCC[C@H](C(=O)O)C1` [Example 115, (1S,3S)-3-((6-(5-((3-benzyl-1,3-dimethylureido)methyl)-1-methyl-1H-1,2,3-triazol-4-yl)-2-methyl-pyridin-3-yl)oxy)cyclohexane-1-carboxylic acid] is 166 nM; for `Cc1nc(-c2nnn(C)c2CNC(=O)N(C)CCC(C)C)ccc1O[C@H]1CCC[C@H](C(=O)O)C1` [Example 116, (1S,3S)-3-((6-(5-((3-isopentyl-3-methyl-ureido)methyl)-1-methyl-1H-1,2,3-triazol-4-yl)-2-methylpyridin-3-yl)oxy)cyclohexane-1-carboxylic acid] it is 92 nM; for `Cc1nc(-c2nnn(C)c2CNC(=O)NC2CC3CCC2C3)ccc1O[C@H]1CCC[C@H](C(=O)O)C1` (stereo partly drawn) [Example 117, (1S,3S)-3-((6-(5-((3-(bicyclo [2.2.1]heptan-2-yl)ureido)methyl)-1-methyl-1H-1,2,3-triazol-4-yl)-2-methylpyridin-3-yl)oxy)cyclohexane-1-carboxylic acid] it is 420 nM. For `Cc1nc(-c2nnn(C)c2CNC(=O)NCCC(C)C)ccc1O[C@H]1CCC[C@H](C(=O)O)C1` [Example 122, (1S,3S)-3-((6-(5-((3-isopentyl-ureido)methyl)-1-methyl-1H-1,2,3-triazol-4-yl)-2-methylpyridin-3-yl)oxy)cyclohexane-1-carboxylic acid] the value was 101 nM; for `Cc1nc(-c2nnn(C)c2CNC(=O)NCC2CC(F)(F)C2)ccc1O[C@H]1CCC[C@H](C(=O)O)C1` [Example 123, (1S,3S)-3-((6-(5-((3-((3,3-difluorocyclo-butyl)methyl)ureido)methyl)-1-methyl-1H-1,2,3-triazol-4-yl)-2-methylpyridin-3-yl)oxy)cyclohexane-1-carboxylic acid], 929 nM; for `CCCCNC(=O)NCc1c(-c2ccc(O[C@H]3CCC[C@H](C(=O)O)C3)c(C)n2)nnn1C` [Example 124, (1S,3S)-3-((6-(5-((3-butylureido)methyl)-1-methyl-1H-1,2,3-triazol-4-yl)-2-methylpyridin-3-yl)oxy)cyclohexane-1-carboxylic acid], 434 nM. For `Cc1nc(-c2nnn(C)c2CNC(=O)NCC(C)C)ccc1O[C@H]1CCC[C@H](C(=O)O)C1` [Example 127, (1S,3S)-3-((6-(5-((3-isobutylureido)methyl)-1-methyl-1H-1,2,3-triazol-4-yl)-2-methylpyridin-3-yl)oxy)cyclohexane-1-carboxylic acid] the value was 2270 nM; for `Cc1nc(-c2nnn(C)c2CNC(=O)N(C)CC(C)C)ccc1O[C@H]1CCC[C@H](C(=O)O)C1` [Example 128, (1S,3S)-3-((6-(5-((3-isobutyl-3-methylureido)methyl)-1-methyl-1H-1,2,3-triazol-4-yl)-2-methylpyridin-3-yl)oxy)cyclohexane-1-carboxylic acid], 273 nM. In the case of `Cc1nc(-c2nnn(C)c2CNC(=O)N[C@H](C)c2ccccc2)ccc1O[C@H]1CCC[C@H](C(=O)O)C1` [Example 130, (1S,3S)-3-((2-methyl-6-(1-methyl-5-((3-((R)-1-phenylethyl)ureido)methyl)-1H-1,2,3-triazol-4-yl)pyridin-3-yl)oxy)cyclohexane-1-carboxylic acid], the IC50 was found to be 275 nM. As to `Cc1nc(-c2nnn(C)c2CNC(=O)N(C)[C@H](C)c2ccccc2)ccc1O[C@H]1CCC[C@H](C(=O)O)C1` [Example 131, (1S,3S)-3-((2-methyl-6-(1-methyl-5-((3-methyl-3-((R)-1-phenylethyl)ureido)methyl)-1H-1,2,3-triazol-4-yl)pyridin-3-yl)oxy)cyclohexane-1-carboxylic acid], the IC50 came to 217 nM.

Source of the values: patent US11697646B2, “Triazole N-linked carbamoyl cyclohexyl acids as LPA antagonists” (BRISTOL-MYERS SQUIBB COMPANY, priority 2017, dated 2023).
